Experimental data: PubChem BioAssay (NCI)
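The compound was tested at five concentrations on cells cultured in 96-well plates, with a 48-hour exposure period. GI50 marks 50% less growth. TGI: concentration producing complete growth inhibition.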

Experiments:
Test in all cases: NCI tumour cell line growth inhibition, 48 h
[1] = tested on: CAKI-1 renal
[2] = tested on: HCT-116 colon
[3] = tested on: HS 578T breast
[4] = tested on: NCI-H23 lung
[5] = tested on: NCI-H522 lung
[6] = tested on: OVCAR-4 ovarian
[7] = tested on: SK-MEL-28 melanoma
[8] = tested on: SK-OV-3 ovarian
[9] = tested on: SN12C renal
[10] = tested on: U251 CNS

## CN(C)CC1C(=O)O[C@H]2[C@H]1CC/C(COC(=O)NCc1ccc(Cn3c(=O)sn(CCCI)c3=O)cc1)=C\CC[C@@]1(C)O[C@@H]21 (stereo not given in full)
[1]
  GI50: 0.886 µM
  TGI: 1.95 µM
[2]
  GI50: 0.793 µM
  TGI: 1.6 µM
[3]
  GI50: 5.75 µM
  TGI: 17.7 µM
[4]
  GI50: 4.56 µM
  TGI: 12.9 µM
[5]
  GI50: 0.742 µM
  TGI: 1.68 µM
[6]
  GI50: 0.843 µM
  TGI: 1.77 µM
[7]
  GI50: 0.92 µM
  TGI: 1.82 µM
[8]
  GI50: 7.96 µM
  TGI: 14.8 µM
[9]
  GI50: 0.958 µM
  TGI: 2.12 µM
[10]
  GI50: 7.53 µM
  TGI: 14.3 µM

## CCN(CC)S(=O)(=O)c1cccc(-c2ccc3c(NC(=O)C4CC4)n[nH]c3c2)c1
[1]
  GI50: 2.28 µM
  TGI: > 6.25 µM
[2]
  GI50: 1.92 µM
  TGI: > 6.25 µM
[3]
  GI50: 1.83 µM
  TGI: > 6.25 µM
[4]
  GI50: 1.86 µM
  TGI: > 6.25 µM
[5]
  GI50: 1.08 µM
  TGI: > 6.25 µM
[6]
  GI50: 1.61 µM
  TGI: > 6.25 µM
[7]
  GI50: 3.06 µM
  TGI: > 6.25 µM
[8]
  GI50: 3.48 µM
  TGI: > 6.25 µM
[9]
  GI50: 3.77 µM
  TGI: > 6.25 µM
[10]
  GI50: 2.1 µM
  TGI: > 6.25 µM

## Cc1cc2c3c([n+](C)c4ccc(F)cc4c3c1)-c1cc(F)ccc1N2C
[1]
  GI50: > 100 µM
  TGI: > 100 µM
[2]
  GI50: 19.9 µM
  TGI: > 100 µM
[3]
  GI50: 2.4 µM
  TGI: 9.77 µM
[4]
  GI50: 9.46 µM
  TGI: 68.6 µM
[5]
  GI50: 6.86 µM
  TGI: 29.4 µM
[6]
  GI50: 22.1 µM
  TGI: > 100 µM
[7]
  GI50: 9.77 µM
  TGI: 34.9 µM
[8]
  GI50: 64.7 µM
  TGI: > 100 µM
[9]
  GI50: 2.34 µM
  TGI: 23.5 µM
[10]
  GI50: 1.69 µM
  TGI: > 100 µM
